These results are taken from patent publication EP2416773B1, “CHECKPOINT KINASE 1 INHIBITORS FOR POTENTIATING DNA DAMAGING AGENTS” (Array Biopharma, Inc., priority 2009, dated 2010).

Where two headings read alike, the source gives them in different places.

A short description of data set [1]: Tolerability of CPT11 and Compound 2 with 12, 24 or 48 hour delay in naive mice (Example 4). Particulars: single agent; CPT11 100 mg/kg IP Q10Dx2; Compound 2 25 mg/kg PO BID 3 days per cycle. It is filed as in vivo.
Data set [2] deals with subcutaneous HT-29 xenografts. Put plainly: Tumor growth inhibition experiment, CPT11 and Compound 5 (Example 12). It is filed as in vivo. Particulars: for Growth Delay / Maximum % Body Weight Loss: single agent, CPT11 100 mg/kg IP Q10Dx2, Compound 5 PO BID 3 days, dose not given. The method, then: Female nude mice were inoculated subcutaneously with 4 X 10^6 HT-29 tumor cells in 1X PBS (100 µL). Twelve days later, mice were randomized into groups of 7 with an average tumor volume in each group of approximately 200 mm^3. […] Tumor size and animal body weight were measured over the course of the study on the days indicated with data points in Figure 13. Tumor volume was calculated using the formula: volume = (width^2 x length)/2. No mortalities occurred over the course of this study.

For data set [3], the system named is subcutaneous HT-29 xenografts. It is filed as in vivo. Particulars: single agent; CPT11 100 mg/kg IP Q10Dx2; Compound 2 25 mg/kg PO BID. The method, then: Female nude mice were inoculated subcutaneously with 5 X 10^6 HT-29 tumor cells in IX PBS (100 µL). Twelve days later, mice were randomized into groups of 8 with an average tumor volume in each group of approximately 215 mm^3. […] Tumor size and animal body weight were measured over the course of the study on the days indicated with data points in Figure 6. Tumor volume was calculated using the formula: volume = (width^2 X length)/2.

The test system of data set [4] is subcutaneous HT-29 xenografts. Put plainly: Tumor growth inhibition experiment with tolerability, CPT11 and Compound 1, simultaneous or 24 hour delay (Example 3). Particulars: single agent; CPT11 100 mg/kg IP single dose; Compound 1 50 mg/kg PO BID 3 consecutive days. It is filed as in vivo. The method, then:
Female nude mice were inoculated subcutaneously with 5 X 10^6 HT-29 tumor cells in 1X PBS (100 µL). Twelve days later, mice were randomized into groups of 6 with an average tumor volume in each group of approximately 250 mm^3. […] Tumor size and animal body weight were measured over the course of the study on the days indicated with data points in Figure 5. Tumor volume was calculated using the formula volume = (width^2 X length)/2.

The subject of data set [5] is MiaPaCa2 pancreatic carcinoma xenografts. It is filed as in vivo. Particulars: for % Tumor Growth Inhibition / Growth Delay: single agent, gemcitabine 120 mg/kg IP Q7Dx3, Compound 5 given as 10 mg/kg in table. The method, then: female nude mice were inoculated subcutaneously with 7 X 10^6 MiaPaCa2 tumor cells in a 1:1 1X PBS and matrigel suspension (100 µL). Fifteen days later, mice were randomized into groups of 7 with an average tumor volume in each group of approximately 315 mm^3. Sorted animals were administered gemcitabine (120 mg/kg; IP) on a Q7Dx3 cycles schedule. […] Tumor size and animals body weight were measured over the course of the study on the days indicated with data points in Figure 11. Tumor volume was calculated using the formula: volume = (width^2 X length)/2. No mortalities occurred over the course of this study.

For the next data set, the system named is phospho-cdc2. Put plainly: Inhibition of CPT11 induced phosphorylation of cdc2 in HT-29 tumors, immunoblot (Example 7). It is filed as in vivo, nude mice. Particulars: extended dosing: 5, 10 or 25 mg/kg PO BID 3 consecutive days from 24 hours after CPT11 100 mg/kg IP; tumors harvested 96 hours post CPT11. The method, then:
Female nude mice were inoculated subcutaneously with 5 X 10^6 HT-29 tumor cells in IX PBS (100 µL). Twenty nine days later, mice were randomized into groups of 3 with an average tumor volume in each group of approximately 500 mm^3. […] Compound 5 was given as a single dose at 25 mg/kg, or alternatively 5, 10, or 25 mg/kg doses were given for 3 consecutive days on BID schedules. […] Phosphorylation of cdc2 was assessed by immunoblot and normalized to total ERK expression. Results are expressed as POC.
For orientation: In western blotting, separated proteins are transferred to a membrane and probed.

The subject of data set [6] is subcutaneous HT-29 xenografts. It is filed as in vivo. Particulars: for Growth Delay: gemcitabine 120 mg/kg IP Q7Dx3. The method, then: Female nude mice were inoculated subcutaneously with 5 X 10^6 HT-29 tumor cells in IX PBS (100 µL). Fourteen days later, mice were randomized into groups of 7 with an average tumor volume in each group of approximately 200 mm^3. Sorted animals were administered gemcitabine (120 mg/kg; IP) on a Q7Dx3 cycles schedule. Compound 5 (5, 10 or 25mg/kg; PO. BID) administration was initiated 24 hours post gemcitabine and endured for 3 days as indicated. Tumor size and animal body weight were measured over the course of the study on the days indicated with data points in Figure 10. Tumor volume was calculated using the formula: volume = (width^2 X length)/2. No mortalities occurred over the course of this study.

Data set [7] has as its system subcutaneous HT-29 xenografts. It is filed as in vivo. Particulars: single agent; gemcitabine 140 mg/kg IP Q7Dx2; Compound 2 PO BID 3 days, dose not given. The method, then: Female nude mice were inoculated subcutaneously with 5 X 10^6 HT-29 tumor cells in IX PBS (100 µL). Fourteen days later, mice were randomized into groups of 8 with an average tumor volume in each group of approximately 260 mm^3. Sorted animals were administered gemcitabine (140 mg/kg; IP) on a Q7Dx2 cycles schedule. Compound 2 (10 or 25mg/kg: PO, BID) administration was initiated 24 hours post gemcitabine and endured for 3 days as indicated. Tumor size and animal body weight were measured over the course of the study on the days indicated with data points in Figure 9. Tumor volume was calculated using the formula: volume = (width^2 X length)/2. No mortalities occurred over the course of this study.

Data set [8] is described as follows: Compound 2 exposure in HT-29 tumor bearing mice after CPT11 (Example 6). It is filed as in vivo, nude mice. Particulars: Compound 2 25 mg/kg PO, from 24 hours after CPT11 100 mg/kg; single dose vs 3 consecutive days BID; t-test > 0.05.
Data set [9] relates to subcutaneous HT-29 xenografts. The experiment in a line: Tumor growth inhibition experiment, CPT11 and Compound 2 (Example 11). Particulars: in combination with CPT-11; Compound 2 10 or 25 mg/kg PO BID. It is filed as in vivo, nude mice. The method, then:
Female nude mice were inoculated subcutaneously with 5 X 10^6 HT-29 tumor cells in 1X PBS (100 µL). Fourteen days later, mice were randomized into groups of 8 with an average tumor volume in each group of approximately 260 mm^3. […] Tumor size and animal body weight were measured over the course of the study on the days indicated with data points in Figure 12. Tumor volume was calculated using the formula: volume= (width^2 x length)/2.

Setting [10] is: single agent, Compound 5 10 mg/kg PO BID 3 days.

In the case of `CCc1c2c(nc3ccc(OC(=O)N4CCC(N5CCCCC5)CC4)cc13)-c1cc3c(c(=O)n1C2)COC(=O)[C@]3(O)CC` [CPT11, irinotecan, reference compound], the “% Mortality” value in [1] and in [4] was 0% in each case. Besides, the “Maximum % Body Weight Loss” value in [1] is given as 3.4. Day 14%; in data set [2], 6.3, Day 18%; in data set [4] it was 3.9, Day 13%. Also, the “Growth Delay” value in [2] was 16.6 days; in data set [3], 16 days.
For the compound `N[C@@H]1CCCN(c2c(Br)cnc3[nH]cc(NC(=O)C4CC4)c23)C1` [Compound 5, (R)-N-(4-(3-aminopiperidin-1-yl)-5-bromo-1H-pyrrolo[2,3-b]pyridin-3-yl)cyclopropanecarboxamide], in data set [2] (in combination with CPT-11, Compound 5 5, 10 or 25 mg/kg PO BID), the “inhibition of tumor growth” value is “dose related inhibition of tumor growth”. Besides, in [2], the “Growth Delay” value is 7.7 days and the “Maximum % Body Weight Loss” value is 2.5, Dav 18%. For the same compound, in data set [5] (in combination with gemcitabine, MiaPaCa2 pancreatic carcinoma xenografts), the tumor growth entry was “inhibits tumor growth”. For the same compound, in data set [5], the “% Tumor Growth Inhibition” value is 25,5% and the “Growth Delay” value was found to be 6.1 days. Besides, in the data set on phospho-cdc2, the “inhibition of CPT11 induced phospho-cdc2” value is given as “dose-related inhibition”. The “inhibition of tumor growth” value in [6] (in combination with gemcitabine, Compound 5 5, 10 or 25 mg/kg PO BID) was “dose related inhibition of tumor growth”. Also, in data set [6] (setting [10]), the “% Regression” value came to 31.6% and the “Growth Delay” value turned out to be 5.7 days.
For `Nc1ccn([C@@H]2O[C@H](CO)[C@@H](O)C2(F)F)c(=O)n1` [Gemcitabine, gemcitabine, reference compound], in data set [5], the “% Tumor Growth Inhibition” value is on record as 6.6%. Also, the “Growth Delay” value in [5] came out at 2.2 days; in data set [6] (setting [10]), 11.5 days; in data set [7] it was 4.39 days.
`CC(C)C(=O)Nc1c[nH]c2ncc(Br)c(N3CCC[C@@H](N)C3)c12` [Compound 2, (R)-N-(4-(3-aminopiperidin-1-yl)-5-bromo-1H-pyrrolo[2,3-b]pyridin-3-yl)isobutyramide]: in data set [1], the “% Mortality” value amounted to 0% and the “Maximum % Body Weight Loss” value is 0.3, Day 17%. Further, in data set [3], the “Growth Delay” value stood at 1.8 days and the “Maximum % Body Weight Loss” value is 7.2, Dav 3%. The “exposure following a single dose or administration for 3 days” value in data set [8] is reported as “not statistically_different”. Also, the “inhibition of tumor growth” value in data set [9] is on record as “dose related inhibition of tumor growth”. Also, the “Growth Delay” value in data set [7] was 4.78 days.
As for `N[C@@H]1CCCN(c2c(Br)cnc3[nH]cc(NC(=O)c4cccnc4)c23)C1` [Compound 1, (R)-N-(4-(3-aminopiperidin-1-yl)-5-bromo-1H-pyrrolo[2,3-b]pyridin-3-yl)nicotinamide], the “Maximum % Body Weight Loss” value in data set [4] was 3.9, Day 13%.
